In the supplement of paper PMC11061612:

Experiments:
Assay in all cases: Bliss excess, mean over the matrix (fraction); higher = more synergy
[1] = system: SK-HEP-1 (Hepatocellular Carcinoma)
Summary of the method: (§1)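 Cell lines in DMEM/F12 or RPMI with 10% FBS were plated in 1536-well plates, held 24 hours at 37°C, 5% CO2, then given two-drug dose matrices for 72 hours (DMSO typically 0.2%). Viability was read by CellTiter-Glo 2.0 luminescence and scaled as inhibition from 0 (vehicle wells) to 1 (blank wells). Combination Emax is the second-highest inhibition in the matrix; Bliss excess is observed combination effect minus expected EA + EB − EA·EB, EA and EB being single-agent effects.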

[2] = system: MDA-MB-436 (Breast Carcinoma)
Summary of the method: as §1

EB2 (Burkitt's Lymphoma) = system: EB2 (Burkitt's Lymphoma)
Summary of the method: as §1

NB13 (Neuroblastoma) = system: NB13 (Neuroblastoma)
Summary of the method: as §1

[3] = system: NCI-H1703 (Squamous Cell Lung Carcinoma)
Summary of the method: as §1

IM-9 (Non-Cancerous) = system: IM-9 (Non-Cancerous)
Summary of the method: as §1

[4] = system: CGTH-W-1 (Thyroid Gland Carcinoma)
Summary of the method: as §1

[5] = system: LU-165 (Small Cell Lung Carcinoma)
Summary of the method: as §1

Structure (SMILES) | Bliss excess [1] | Bliss excess [2] | Bliss excess (EB2 (Burkitt's Lymphoma)) | Bliss excess (NB13 (Neuroblastoma)) | Bliss excess [3] | Bliss excess (IM-9 (Non-Cancerous)) | Bliss excess [4] | Bliss excess [5]
C=CCn1c(=O)c2cnc(Nc3ccc(N4CCN(C)CC4)cc3)nc2n1-c1cccc(C(C)(C)O)n1 [AZD1775] + CCc1c2c(nc3ccc(O)cc13)-c1cc3c(c(=O)n1C2)COC(=O)[C@]3(O)CC [SN-38] (first compound max 1 µM, partner max 0.3 µM) | -0.0134 | -0.0545 | -0.0507 | -0.0592 | -0.0341 | 0.0003 | -0.0747 | -0.0771
C=CCn1c(=O)c2cnc(Nc3ccc(N4CCN(C)CC4)cc3)nc2n1-c1cccc(C(C)(C)O)n1 [AZD1775] + Nc1ccn([C@@H]2O[C@H](CO)[C@@H](O)C2(F)F)c(=O)n1 [Gemcitabine] (first compound max 1 µM, partner max 0.3 µM) | -0.029 | 0.0536 | 0.0066 |  | 0.0364 | 0.0398 | 0.0167 | 0.0004
CN(CCO)CC[C@H](CSc1ccccc1)Nc1ccc(S(=O)(=O)NC(=O)c2ccc(N3CCC([C@@H](O)c4ccccc4-c4ccc(Cl)cc4)CC3)cc2)cc1S(=O)(=O)C(F)(F)F [AZD4320] + CS(=O)(=O)CCNCc1ccc(-c2ccc3ncnc(Nc4ccc(OCc5cccc(F)c5)c(Cl)c4)c3c2)o1 [Lapatinib] (first compound max 1 µM, 7x7, partner max 10 µM) | -0.0958 | -0.0333 | -0.104 | 0.0537 | 0.0162 | 0.117 | -0.0184 | 
Cc1c2c(nn1C)CSCc1cc(n(C)n1)CSc1cc(c3ccccc3c1)OCCCc1c(C(=O)O)n(C)c3c-2c(Cl)ccc13 [AZD5991] + CC(=O)O[C@H]1C(=O)[C@@]2(C)[C@H]([C@H](OC(=O)c3ccccc3)[C@]3(O)C[C@H](OC(=O)[C@H](O)[C@@H](NC(=O)c4ccccc4)c4ccccc4)C(C)=C1C3(C)C)[C@]1(OC(C)=O)CO[C@@H]1C[C@@H]2O [Paclitaxel] (first compound max 1 µM, 7x7, partner max 3 µM) | -0.0587 | 0.0273 | -0.083 |  | -0.0136 | 0.0008 | 0.037 | -0.0443
Cc1c2c(nn1C)CSCc1cc(n(C)n1)CSc1cc(c3ccccc3c1)OCCCc1c(C(=O)O)n(C)c3c-2c(Cl)ccc13 [AZD5991] + CS(=O)(=O)CCNCc1ccc(-c2ccc3ncnc(Nc4ccc(OCc5cccc(F)c5)c(Cl)c4)c3c2)o1 [Lapatinib] (first compound max 1 µM, 7x7, partner max 10 µM) | 0.0191 | -0.0434 | -0.0287 | -0.0239 | -0.0374 | 0.0138 | 0.0013 | -0.125
Cc1c2c(nn1C)CSCc1cc(n(C)n1)CSc1cc(c3ccccc3c1)OCCCc1c(C(=O)O)n(C)c3c-2c(Cl)ccc13 [AZD5991] + Nc1ccn([C@@H]2O[C@H](CO)[C@@H](O)C2(F)F)c(=O)n1 [Gemcitabine] (first compound max 1 µM, 7x7, partner max 0.3 µM) | -0.109 | -0.06 | -0.0405 |  | -0.0604 | -0.0364 | -0.0235 | -0.0278
C[C@@H]1COCCN1c1cc(C2([S@](C)(=N)=O)CC2)nc(-c2ccnc3[nH]ccc23)n1 [AZD6738] + C1CC(C1)(C(=O)[O-])C(=O)[O-].N.N.[Pt+2] [Carboplatin] (first compound max 10 µM, 7x7, partner max 10 µM) | -0.0469 | -0.0038 | -0.0316 | -0.0955 | -0.0312 | 0.0081 | -0.0098 | -0.0517
C[C@@H]1COCCN1c1cc(C2([S@](C)(=N)=O)CC2)nc(-c2ccnc3[nH]ccc23)n1 [AZD6738] + Nc1ccn([C@@H]2O[C@H](CO)[C@@H](O)C2(F)F)c(=O)n1 [Gemcitabine] (first compound max 10 µM, 7x7, partner max 0.3 µM) | 0.0557 | 0.0544 | 0.0068 |  | -0.006 | -0.0189 | 0.106 | -0.018
C[C@@H](Nc1cc(F)cc(F)c1)c1cc(C(=O)N(C)C)cc2c(=O)cc(N3CCOCC3)oc12 [AZD8186] + C1CN(CCC1(C(=O)N[C@@H](CCO)C2=CC=C(C=C2)Cl)N)C3=NC=NC4=C3C=CN4 [AZD5363] (first compound max 10 µM, 7x7, partner max 10 µM) | -0.0291 | -0.0162 | -0.0292 |  | 0.0503 | 0.0493 | -0.0136 | -0.086
C[C@@H](Nc1cc(F)cc(F)c1)c1cc(C(=O)N(C)C)cc2c(=O)cc(N3CCOCC3)oc12 [AZD8186] + CC(=O)c1c(C)c2cnc(Nc3ccc(N4CCNCC4)cn3)nc2n(C2CCCC2)c1=O [Palbociclib] (first compound max 10 µM, 7x7, partner max 10 µM) | -0.0155 | -0.0039 | 0.0045 |  | 0.0093 | 0.112 | 0.0397 | -0.0313
C[C@@H](Oc1cc(-c2cnn(C3CCNCC3)c2)cnc1N)c1c(Cl)ccc(F)c1Cl [Crizotinib] + CC1=C(C(=CC=C1)Cl)NC(=O)C2=CN=C(S2)NC3=CC(=NC(=N3)C)N4CCN(CC4)CCO [Dasatinib] (first compound max 10 µM, 7x7, partner max 2 µM) | -0.0098 | -0.0418 | 0.0112 | -0.06 | -0.0736 | 0.0001 | 0.0795 | -0.0337
C[C@@H](Oc1cc(-c2cnn(C3CCNCC3)c2)cnc1N)c1c(Cl)ccc(F)c1Cl [Crizotinib] + Cn1cnc2c(F)c(Nc3ccc(Br)cc3Cl)c(C(=O)NOCCO)cc21 [Selumetinib] (first compound max 10 µM, 7x7, partner max 10 µM) | -0.0968 | -0.005 | -0.0748 | -0.104 | -0.0569 | -0.009 | -0.0275 | -0.082
CS(=O)(=O)CCNCc1ccc(-c2ccc3ncnc(Nc4ccc(OCc5cccc(F)c5)c(Cl)c4)c3c2)o1 [Lapatinib] + Cn1cnc2c(F)c(Nc3ccc(Br)cc3Cl)c(C(=O)NOCCO)cc21 [Selumetinib] (first compound max 10 µM, 7x7, partner max 10 µM) | -0.0163 | -0.0587 | -0.0474 | -0.0311 | -0.0179 | -0.0826 | -0.0291 | -0.0543
O=C(c1cc(Cc2n[nH]c(=O)c3ccccc23)ccc1F)N1CCN(C(=O)C2CC2)CC1 [Olaparib] + CC1(C)CCC(CN2CCN(c3ccc(C(=O)NS(=O)(=O)c4ccc(NCC5CCOCC5)c([N+](=O)[O-])c4)c(Oc4cnc5[nH]ccc5c4)c3)CC2)=C(c2ccc(Cl)cc2)C1 [Venetoclax] (first compound max 10 µM, 7x7, partner max 1 µM) | -0.0619 | -0.0518 | -0.0324 |  | -0.0065 | 0.112 | -0.0433 | -0.0248
O=C(c1cc(Cc2n[nH]c(=O)c3ccccc23)ccc1F)N1CCN(C(=O)C2CC2)CC1 [Olaparib] + CN(CC[C@H](CSC1=CC=CC=C1)NC2=C(C=C(C=C2)S(=O)(=O)NC(=O)C3=CC=C(C=C3)N4CCC(CC4)[C@H](C5=CC=CC=C5C6=CC=C(C=C6)Cl)O)S(=O)(=O)C(F)(F)F)CCO [AZD4320] (first compound max 10 µM, 7x7, partner max 1 µM) | 0.0491 | -0.0288 | -0.0537 |  | -0.0311 | 0.141 | -0.0482 | -0.008
O=C(c1cc(Cc2n[nH]c(=O)c3ccccc23)ccc1F)N1CCN(C(=O)C2CC2)CC1 [Olaparib] + COc1nnc2ccc(N3CCC(c4ccc(OCCN5CCN(C)C(=O)[C@H]5C)cc4)CC3)nn12 [AZD5153] (first compound max 10 µM, 7x7, partner max 1 µM) | 0.0116 | -0.0247 | -0.0329 |  | -0.0244 | 0.0107 | -0.0247 | -0.0305
O=C(c1cc(Cc2n[nH]c(=O)c3ccccc23)ccc1F)N1CCN(C(=O)C2CC2)CC1 [Olaparib] + Cc1c2c(nn1C)CSCc1cc(n(C)n1)CSc1cc(c3ccccc3c1)OCCCc1c(C(=O)O)n(C)c3c-2c(Cl)ccc13 [AZD5991] (first compound max 10 µM, 7x7, partner max 1 µM) | -0.0101 | -0.0211 | -0.0266 |  | -0.0244 | 0.0865 | -0.045 | -0.0374
